Results reported in patent US11628186B2, “Method and composition for the reduction of viral replication, duration and spread of the COVID-19 and the flu” (priority 2017, dated 2023).
Like-named read-outs stand apart in the source and are kept apart here.

Columns and labels:
non-cancerous cells = test: Viable non-cancerous cells after incubation with anticancer drugs in various media (Table VIII); format: cell-based; set-up: viability: concentration or dose not given beside the values; conditions: for Percentage of viable cells after incubation with drugs: drug alone
Description: (§1) Peripheral blood monocytes and U937 monocytic leukemia tumor cells were placed in sterile culture flasks and maintained in culture using Dulbecco's Minimal Essential Medium, with 10% fetal calf serum, supplemented with 2 mM glutamine and Pen/Strep. The cytotoxicity of the cytotoxic agent on the cells was analyzed by propidium iodide exclusion techniques and flow cytometric quantitation. Viability of the cells was quantified as the number of cells that excluded the vital dye trypan blue. Sodium pyruvate was dissolved in distilled water and the solution was adjusted to pH 7.4 with calcium, phosphate and magnesium. Solutions were sterile filtered. Stock solutions were prepared so that the vehicle would not be more than 1% of the total volume of the culture media. H-Thymidine Radiosotopic Incorporation Measurement of Cytotoxity. The membrane surfactant enhancers agents (sodium pyruvate and calcium, phosphate and magnesium), was examined for their ability to decrease the Cytotoxity of Doxorubicin to U937 monocytic leukemia cells and normal peripheral blood monocytes. […] Susceptibility studies were conducted to determine the optimal treatment time of the cells with the […] agents prior to treatment of the cells with the cytotoxic agent. The normal cells and U937 leukemic tumor cells were pretreated separately in “wash out” studies with the single agents alone, and in combination, at the optimal concentration described above for various time periods, washed with fresh medium to remove the agents, and treated with the cytotoxic agent. The co-culture of normal and U937 leukemic […] cells was treated essentially in the same manner except that the cells were not treated separately, but co-cultured. […] The cells were then placed in culture medium without the protective agents. […] Normal and U937 tumor cells were co-cultured and the Cytotoxity of Doxorubicin on the cells was determined by viability assays which examined the differential ability of the cytoprotective compositions alone, and in combinations, to protect the normal cells from the Cytotoxity of the chemotherapeutic agent. The cells were isolated and examined for morphological evidence of cytotoxicity or prevention of cytotoxicity. […] DNA synthesis studies using 3Hthymidine (1 uCi/well) were carried out 4 hours prior to termination of the experiment to determine the effect of the formulations on the proliferation of the cells as a measure of the prevention of cytotoxicity and the extent of Doxorubicin-induced cytotoxicity. Propidium iodide exclusion analysis was carried out for direct quantitation of the cytotoxicity and the prevention of cytotoxicity. Each set of studies was performed in triplicate so that statistical analysis of the significant differences between the treatment groups could be conducted. […] Wash-out studies were conducted to determine viability of the peripheral blood monocytes co-cultured with U937 monocytic leukemia cells after 24 hour pretreatment of the cells with the surfactant enhancer, which is also a mitochondrial protective agent, followed by administration of Doxorubicin.

[1] = as above; format: cell-based; set-up: viability: concentration or dose not given beside the values; conditions: non-cancerous cells (normal peripheral blood monocytes)
Description: as §1

[2] = tested on: patients with lung diseases including COPD; test: Comparison of inhaled salts of pyruvate, 5 ml of 0.5 mM solution (Table I)
Description: All previous studies using pyruvate to treat Allergic Rhinitis, Asthmatic and COPD patients used only the sodium salt form of pyruvic acid in saline. The drug products that were tested in the six Phase I/II clinical trial were differing concentrations of sodium pyruvate dissolved in 0.9% sodium chloride solution (Saline). These drug products contained 0.5 mM, 1.5 mM, or 5.0 mM of sodium pyruvate in physiological saline. They were administered to normal volunteers and COPD and asthmatics by inhalation therapy. […] Various sodium pyruvate solutions were evaluated in the lungs for their ability to enhance FEV1 values and reduce coughing, and lung tightness.
The amount of the salts delivered in the 5 ml's of the 0.5 mM pyruvate solutions were compared to the amounts of the salts in 5 ml's of human blood. […] When ethyl pyruvate reacts with oxygen radical like hydrogen peroxide, it is converted to ethane and alcohol and Co2 and acetate. Ethane and alcohol are lung irritants.
This formula can also be made by adding 3% calcium phosphate or dicalcium phosphate to the standard 0.5 mM to 30 mM sodium pyruvate saline solution see Table I.

[3] = tested on: patients with sinus & lung diseases including IPF and COPD; test: Salts of pyruvate as 20 mM nasal sprays (Table IX)
Source text: They never tested the individual salts for their ability to reduce inflammation or increase lung functions.

[4] = tested on: patients with lung diseases including COPD; test: Comparison of inhaled salts of pyruvate, 5 ml of 5 mM solution (Table II)
[5] = Drugs in commercial formula with sodium chloride only
[6] = Drugs in commercial formula with sodium pyruvate with calcium & phosphate & Magnesium ions repeat study
[7] = Drugs in commercial formula with sodium pyruvate with calcium & phosphate & magnesium ions
[8] = Drugs in commercial formula with sodium pyruvate without calcium & phosphate & magnesium
[9] = Drugs in commercial formula with sodium chloride only, read-out: Percentage of viable non-cancerous cells
[10] = Drugs in commercial formula with sodium pyruvate with calcium & phosphate & Magnesium ions repeat study, read-out: Percentage of viable non-cancerous cells
[11] = Drugs in commercial formula with sodium pyruvate with calcium & phosphate & magnesium ions, read-out: Percentage of viable non-cancerous cells
[12] = Drugs in commercial formula with sodium pyruvate without calcium & phosphate & magnesium, read-out: Percentage of viable non-cancerous cells
[13] = drug alone, read-out: Percentage of viable cells after incubation with drugs
[14] = 5 ml of 0.5 mM solution in physiological saline, inhaled
[15] = 5 ml of 0.5 mM solution, inhaled
[16] = 5 ml of 0.5 mM solution, 1 most negative, 10 best
[17] = 5 mls of a 0.5 mM inhalation solution
[18] = 20 mM (0.22%) nasal spray in 0.9% sodium chloride
[19] = 20 mM (0.22%) nasal spray, 1 most negative, 10 best
[20] = 5 ml of 5 mM solution in saline, inhaled
[21] = 5 ml of 5 mM solution, 1 most negative, 10 best

## Bleomycin
non-cancerous cells; [5]
  Percentage of viable non-cancerous cells: 33%
non-cancerous cells; [6]
  Percentage of viable non-cancerous cells: 98%
non-cancerous cells; [7]
  Percentage of viable non-cancerous cells: 98%
non-cancerous cells; [8]
  Percentage of viable non-cancerous cells: 47%
non-cancerous cells
  Percentage of viable cells after incubation with drugs: 31%

## N.N.O=C([O-])C1(C(=O)[O-])CCC1.[Pt+2] [Carboplatin]
non-cancerous cells; [5]
  Percentage of viable non-cancerous cells: 50%
non-cancerous cells; [6]
  Percentage of viable non-cancerous cells: 97%
non-cancerous cells
  Percentage of viable cells after incubation with drugs: 42%

## CN(Cc1cnc2nc(N)nc(N)c2n1)c1ccc(C(=O)N[C@@H](CCC(=O)O)C(=O)O)cc1 [methotrexate]
[1]; [9]
  viability: 43%
[1]; [10]
  viability: 98%
[1]; [11]
  viability: 94%
[1]; [12]
  viability: 68%
[1]; [13]
  viability: 42%

## Bevacizumab
non-cancerous cells; [5]
  Percentage of viable non-cancerous cells: 27%
non-cancerous cells; [8]
  Percentage of viable non-cancerous cells: 40%
non-cancerous cells
  Percentage of viable cells after incubation with drugs: 21%

## O=c1[nH]c(=O)n([C@H]2C[C@H](O)[C@@H](CO)O2)cc1F [floxuridine]
[1]; [9]
  viability: 38%
[1]; [10]
  viability: 91%
[1]; [11]
  viability: 92%
[1]; [12]
  viability: 58%
[1]; [13]
  viability: 38%

## O=C1[O][Pt]2([NH][C@@H]3CCCC[C@H]3[NH]2)[O]C1=O [oxaliplatin]
non-cancerous cells; [5]
  Percentage of viable non-cancerous cells: 24%
non-cancerous cells; [6]
  Percentage of viable non-cancerous cells: 98%
non-cancerous cells; [7]
  Percentage of viable non-cancerous cells: 95%
non-cancerous cells; [8]
  Percentage of viable non-cancerous cells: 41%
non-cancerous cells
  Percentage of viable cells after incubation with drugs: 23%

## CC(C)(C#N)c1cc(Cn2cncn2)cc(C(C)(C)C#N)c1 [anastrozole]
[1]; [9]
  viability: 25%
[1]; [10]
  viability: 94%
[1]; [11]
  viability: 86%
[1]; [12]
  viability: 50%
[1]; [13]
  viability: 24%

## manganese pyruvate
[2]; [14]
  Increased in FEV-1% lung function: 3.0%
[2]; [15]
  Percentage Increase in SaO2 over baseline: No
  Percentage decrease or increase of Nitric Oxide over baseline: −2.0%
  Relief of congestion, coughing and lung tightness: 4
[2]; [16]
  Overall Rating 1-10: 3
[2]; [17]
  reduction of nitric oxide: did not reduce nitric oxide
[3]; [18]
  Increased in FEV-1%: 0.0%
  Percentage Increase in SaO2 over baseline: No
  Percentage increase of Nitric Oxide over baseline: 2.0%
  Relief of congestion, coughing and lung tightness: 4
[3]; [19]
  Overall Rating 1-10: 3
[4]; [20]
  Increased in FEV-1%: 3.0%
[4]; 5 ml of 5 mM solution, inhaled
  Percentage Increase in SaO2 over baseline: No
  Percentage increase of Nitric Oxide over baseline: 25.0%
  Relief of congestion, coughing and lung tightness: 4
[4]; [21]
  Overall Rating 1-10: 3

## O=P(O)(O)O [Potassium Phosphate, reference compound]
[2]; in vivo
  Increased in FEV-1% lung function: 0%
  Overall Rating 1-10: 3
  Percentage Increase in SaO2 over baseline: No
  Percentage decrease or increase of Nitric Oxide over baseline: 0%
  Relief of congestion, coughing and lung tightness: 4
[3]; in vivo
  Increased in FEV-1%: 0.0%
  Overall Rating 1-10: 3
  Percentage Increase in SaO2 over baseline: No
  Percentage increase of Nitric Oxide over baseline: 0%
  Relief of congestion, coughing and lung tightness: 4
[4]; in vivo
  Increased in FEV-1%: 0%
  Overall Rating 1-10: 3
  Percentage Increase in SaO2 over baseline: No
  Percentage increase of Nitric Oxide over baseline: 0%
  Relief of congestion, coughing and lung tightness: 4

## CC(=O)C(=O)O.N [Ammonium, ammonium pyruvate]
[2]; [14]
  Increased in FEV-1% lung function: 0%
[2]; [15]
  Irritation: Yes
  Percentage Increase in SaO2 over baseline: No
  Percentage decrease or increase of Nitric Oxide over baseline: +5.0%
  Relief of congestion, coughing and lung tightness: 1
[2]; [16]
  Overall Rating 1-10: 1
[2]; [17]
  reduction of nitric oxide: did not reduce nitric oxide
[2]; evaluated in the nasal cavities
  irritation in the nasal cavities compared with the lungs: even more irritating
[2]; inhaled into the lungs
  Irritation: irritating
[3]; [18]
  Increased in FEV-1%: 0.0%
  Irritation: Yes
  Percentage Increase in SaO2 over baseline: No
  Percentage increase of Nitric Oxide over baseline: 00.0%
  Relief of congestion, coughing and lung tightness: 1
[3]; [19]
  Overall Rating 1-10: 1
[4]; [20]
  Increased in FEV-1%: 0%
[4]; 5 ml of 5 mM solution, inhaled
  Irritation: Yes
  Percentage Increase in SaO2 over baseline: No
  Percentage increase of Nitric Oxide over baseline: 35.0%
  Relief of congestion, coughing and lung tightness: 1
[4]; [21]
  Overall Rating 1-10: 1

## zinc pyruvate
[2]; [14]
  Increased in FEV-1% lung function: 8.0%
[2]; [15]
  Irritation: Yes
  Percentage Increase in SaO2 over baseline: No
  Percentage decrease or increase of Nitric Oxide over baseline: +10%
  Relief of congestion, coughing and lung tightness: 4
[2]; [16]
  Overall Rating 1-10: 4
[2]; [17]
  increased nitric oxide levels: 10%
  reduction of nitric oxide: did not reduce nitric oxide
[2]; inhaled into the lungs
  Irritation: irritating
[3]; [19]
  Overall Rating 1-10: 3
[3]; in vivo
  Increased in FEV-1%: 1.0%
  Irritation: Yes
  Percentage Increase in SaO2 over baseline: No
  Percentage increase of Nitric Oxide over baseline: 2.0%
  Relief of congestion, coughing and lung tightness: 4
[4]; [20]
  Increased in FEV-1%: 1.0%
[4]; 5 ml of 5 mM solution, inhaled
  Irritation: Yes
  Percentage Increase in SaO2 over baseline: No
  Percentage increase of Nitric Oxide over baseline: 22.0%
  Relief of congestion, coughing and lung tightness: 4
[4]; [21]
  Overall Rating 1-10: 3
